Laboratory results taken from PubChem BioAssay AID1963860 (Molecular Pharmacology Branch, DTP, NCI, 2024).

Test system: CN0375-F725-PDC KRAS spheroid viability
Experiment: Anticancer human tumor CN0375-F725-PDC patient-derived colon carcinoma cell line growth inhibition [KRAS2]
Settings: spheroids with HUVEC and MSC; for IC50: curve of first compound; for viability, T/C: stronger effect = lower value
How it was run: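 KRAS-mutant tumor cells were grown as spheroids with HUVEC endothelial cells and human MSCs as stroma. Targeted agents were tested alone and with KRAS pathway inhibitors. Doses started at or near clinical Cmax, or 10 microM, descending half-log.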

[1] = second compound 0.1 µM, first compound 0.000316 µM
[2] = second compound 0.1 µM, first compound 0.001 µM
[3] = second compound 0.1 µM, first compound 0.00316 µM
[4] = second compound 0.1 µM, first compound 0.01 µM
[5] = second compound 0.1 µM, first compound 0.0316 µM
[6] = second compound 0.1 µM, first compound 0.1 µM
[7] = second compound 0.316 µM, first compound 0.000316 µM
[8] = second compound 0.316 µM, first compound 0.001 µM
[9] = second compound 0.316 µM, first compound 0.00316 µM
[10] = second compound 0.316 µM, first compound 0.01 µM
[11] = second compound 0.316 µM, first compound 0.0316 µM
[12] = second compound 0.316 µM, first compound 0.1 µM
[13] = second compound 1 µM, first compound 0.000316 µM
[14] = second compound 1 µM, first compound 0.001 µM
[15] = second compound 1 µM, first compound 0.00316 µM
[16] = second compound 1 µM, first compound 0.01 µM
[17] = second compound 1 µM, first compound 0.0316 µM
[18] = second compound 1 µM, first compound 0.1 µM
[19] = second compound 3.16 µM, first compound 0.000316 µM
[20] = second compound 3.16 µM, first compound 0.001 µM
[21] = second compound 3.16 µM, first compound 0.00316 µM
[22] = second compound 3.16 µM, first compound 0.01 µM
[23] = second compound 3.16 µM, first compound 0.0316 µM
[24] = second compound 3.16 µM, first compound 0.1 µM
[25] = second compound 10 µM, first compound 0.000316 µM
[26] = second compound 10 µM, first compound 0.001 µM
[27] = second compound 10 µM, first compound 0.00316 µM
[28] = second compound 10 µM, first compound 0.01 µM
[29] = second compound 10 µM, first compound 0.0316 µM
[30] = second compound 10 µM, first compound 0.1 µM
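Note: spheroids exposed to agents for 7 days.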

Structure (SMILES) | IC50 (second compound 0.1 µM) [nM] | IC50 (second compound 0.316 µM) [nM] | IC50 (second compound 1 µM) [nM] | IC50 (second compound 3.16 µM) [nM] | IC50 (second compound 10 µM) [nM] | viability, T/C [1] [%] | viability, T/C [2] [%] | viability, T/C [3] [%] | viability, T/C [4] [%] | viability, T/C [5] [%] | viability, T/C [6] [%] | viability, T/C [7] [%] | viability, T/C [11] [%] | viability, T/C [12] [%] | viability, T/C [17] [%] | viability, T/C [18] [%] | viability, T/C [23] [%] | viability, T/C [24] [%] | viability, T/C [29] [%] | viability, T/C [30] [%] | further results
CC(C)n1nc(-c2ccc3oc(N)nc3c2)c2c(N)ncnc21 + CC1OCC2(CCN(c3cnc(Sc4ccnc(N)c4Cl)c(N)n3)CC2)C1N | 58.1 | 42.2 | 33.1 | 26.3 | 7.76 | 91.6 | 89.6 | 73.9 | 68.6 | 54.2 | 45.7 | 84.5 | 54.6 | 43.2 | 51 | 40.5 | 46.9 | 37.9 | 39.9 | 33.8 | viability, T/C [8]: 84.9%; viability, T/C [9]: 73.1%; viability, T/C [10]: 60.7%; viability, T/C [13]: 82.5%; viability, T/C [14]: 81.7%; viability, T/C [15]: 68.6%; viability, T/C [16]: 61.5%; viability, T/C [19]: 74.6%; viability, T/C [20]: 74.3%; viability, T/C [21]: 67.5%; viability, T/C [22]: 57.3%; viability, T/C [25]: 63.8%; viability, T/C [26]: 65%; viability, T/C [27]: 56.4%; viability, T/C [28]: 47.5%
CC1(C)CCC(CN2CCN(c3ccc(C(=O)NS(=O)(=O)c4ccc(NCC5CCOCC5)c([N+](=O)[O-])c4)c(Oc4cnc5[nH]ccc5c4)c3)CC2)=C(c2ccc(Cl)cc2)C1 + CC1OCC2(CCN(c3cnc(Sc4ccnc(N)c4Cl)c(N)n3)CC2)C1N | 3490 | 2760 | 2600 | 2130 | 1610 | – | – | – | – | 103 | 100 | – | 95.4 | 100 | 90.7 | 91.5 | 84.4 | 87.1 | 67.7 | 73.2 | viability, T/C (second compound 0.1 µM, first compound 0.316 µM): 104%; viability, T/C (second compound 0.1 µM, first compound 1 µM): 103%; viability, T/C (second compound 0.1 µM, first compound 3.16 µM): 51.6%; viability, T/C (second compound 0.1 µM, first compound 10 µM): 31.6%; viability, T/C (second compound 0.316 µM, first compound 0.316 µM): 94.6%; viability, T/C (second compound 0.316 µM, first compound 1 µM): 95.8%; viability, T/C (second compound 0.316 µM, first compound 3.16 µM): 43.8%; viability, T/C (second compound 0.316 µM, first compound 10 µM): 25.1%; viability, T/C (second compound 1 µM, first compound 0.316 µM): 89.9%; viability, T/C (second compound 1 µM, first compound 1 µM): 86.3%; viability, T/C (second compound 1 µM, first compound 3.16 µM): 42.5%; viability, T/C (second compound 1 µM, first compound 10 µM): 22.2%; viability, T/C (second compound 3.16 µM, first compound 0.316 µM): 87.4%; viability, T/C (second compound 3.16 µM, first compound 1 µM): 82.8%; viability, T/C (second compound 3.16 µM, first compound 3.16 µM): 32.9%; viability, T/C (second compound 3.16 µM, first compound 10 µM): 13.9%; viability, T/C (second compound 10 µM, first compound 0.316 µM): 77.2%; viability, T/C (second compound 10 µM, first compound 1 µM): 69.6%; viability, T/C (second compound 10 µM, first compound 3.16 µM): 22%; viability, T/C (second compound 10 µM, first compound 10 µM): 8.8%
Cn1ncnc1[C@H]1c2n[nH]c(=O)c3cc(F)cc(c23)N[C@@H]1c1ccc(F)cc1 + CC1OCC2(CCN(c3cnc(Sc4ccnc(N)c4Cl)c(N)n3)CC2)C1N | > 100 | > 100 | > 100 | > 100 | > 100 | 103 | 95.2 | 93.4 | 91.6 | 99.2 | 90.3 | 97.5 | 92.5 | 81 | 82.1 | 80 | 75.5 | 78.2 | 61.1 | 61.2 | viability, T/C [8]: 87.3%; viability, T/C [9]: 87.8%; viability, T/C [10]: 85.2%; viability, T/C [13]: 88.4%; viability, T/C [14]: 89.5%; viability, T/C [15]: 83.5%; viability, T/C [16]: 86.3%; viability, T/C [19]: 79.5%; viability, T/C [20]: 80.4%; viability, T/C [21]: 81%; viability, T/C [22]: 76.3%; viability, T/C [25]: 70.9%; viability, T/C [26]: 72.7%; viability, T/C [27]: 67.2%; viability, T/C [28]: 63.9%
